Test [1] concerns the target T1, TLR8 (Homo sapiens, UniProt Q9NR97).
T1 construct: expressed in transfected cells; host or cells: HEK cells carrying TLR8 and an NFkB luciferase reporter
T1 sequence (Q9NR97 27-1041): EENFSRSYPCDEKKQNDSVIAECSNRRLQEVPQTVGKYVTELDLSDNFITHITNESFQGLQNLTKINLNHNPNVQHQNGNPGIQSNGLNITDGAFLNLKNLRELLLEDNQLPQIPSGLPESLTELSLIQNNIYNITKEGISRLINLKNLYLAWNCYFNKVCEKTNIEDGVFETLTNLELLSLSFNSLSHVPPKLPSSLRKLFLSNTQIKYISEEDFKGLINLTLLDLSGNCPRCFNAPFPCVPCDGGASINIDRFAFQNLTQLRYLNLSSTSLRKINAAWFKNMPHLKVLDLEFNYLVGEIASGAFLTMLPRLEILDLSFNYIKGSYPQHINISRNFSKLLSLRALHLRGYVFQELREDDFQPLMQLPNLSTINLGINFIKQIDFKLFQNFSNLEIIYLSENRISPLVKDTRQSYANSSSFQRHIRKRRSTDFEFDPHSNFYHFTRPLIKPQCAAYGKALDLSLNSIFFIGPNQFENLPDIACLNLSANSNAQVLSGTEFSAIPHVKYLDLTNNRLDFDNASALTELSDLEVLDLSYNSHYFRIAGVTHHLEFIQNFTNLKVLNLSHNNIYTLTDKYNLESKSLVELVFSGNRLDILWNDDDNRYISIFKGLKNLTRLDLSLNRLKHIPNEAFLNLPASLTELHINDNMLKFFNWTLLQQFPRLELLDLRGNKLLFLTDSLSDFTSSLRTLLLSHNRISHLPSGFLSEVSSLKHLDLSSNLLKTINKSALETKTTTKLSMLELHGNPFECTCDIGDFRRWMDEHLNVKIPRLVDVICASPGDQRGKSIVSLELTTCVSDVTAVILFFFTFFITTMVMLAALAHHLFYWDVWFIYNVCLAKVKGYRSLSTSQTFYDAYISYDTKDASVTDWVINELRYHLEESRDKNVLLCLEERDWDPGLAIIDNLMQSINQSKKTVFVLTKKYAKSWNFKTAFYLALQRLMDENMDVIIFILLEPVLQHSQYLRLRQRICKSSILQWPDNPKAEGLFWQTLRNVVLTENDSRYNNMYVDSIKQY
The test is described as follows: HEK TLR8 Cell Assay. The class given is cell-based. The settings on record: TLR8/NFKb HEK cells, R848 agonist 30 uM final, Steady-Glo readout. The procedure:
Example 25: HEK TLR8 Cell Assay
(§1) Into 384 CulturePlates (Corning 3707) was placed 5000 c/w of TLR8/NFKb HEK cells in 30 uL DMEM without Phenol red (gibco #31053) and 10% FCS-HI, 2 mM L-Glutamine, 1% Pen/Strept. The cells are incubated for 24 h at 37 degrees Celsius, and 10% carbon dioxide. Dispense 3 uL of controls, standards, and compounds to wells, incubate for 30 min then add 3 uL of R848 (30 uM final concentration) agonist in 20 mM Hepes. Incubate for 5 hours and then allow to stand at room temperature for 15 min. Add 10 uL of Steady-Glo substrate reagent and shake assay plate for 5 min at 1500 rpm. Let the assay plate sit for 30 min at room temperature and then read plate on EnVision.

Test [2] has as its target T2, TLR7 (Homo sapiens, UniProt Q9NYK1).
T2 construct: expressed in transfected cells; host or cells: HEK cells carrying TLR7 and an NFkB luciferase reporter
T2 sequence (Q9NYK1 27-1049): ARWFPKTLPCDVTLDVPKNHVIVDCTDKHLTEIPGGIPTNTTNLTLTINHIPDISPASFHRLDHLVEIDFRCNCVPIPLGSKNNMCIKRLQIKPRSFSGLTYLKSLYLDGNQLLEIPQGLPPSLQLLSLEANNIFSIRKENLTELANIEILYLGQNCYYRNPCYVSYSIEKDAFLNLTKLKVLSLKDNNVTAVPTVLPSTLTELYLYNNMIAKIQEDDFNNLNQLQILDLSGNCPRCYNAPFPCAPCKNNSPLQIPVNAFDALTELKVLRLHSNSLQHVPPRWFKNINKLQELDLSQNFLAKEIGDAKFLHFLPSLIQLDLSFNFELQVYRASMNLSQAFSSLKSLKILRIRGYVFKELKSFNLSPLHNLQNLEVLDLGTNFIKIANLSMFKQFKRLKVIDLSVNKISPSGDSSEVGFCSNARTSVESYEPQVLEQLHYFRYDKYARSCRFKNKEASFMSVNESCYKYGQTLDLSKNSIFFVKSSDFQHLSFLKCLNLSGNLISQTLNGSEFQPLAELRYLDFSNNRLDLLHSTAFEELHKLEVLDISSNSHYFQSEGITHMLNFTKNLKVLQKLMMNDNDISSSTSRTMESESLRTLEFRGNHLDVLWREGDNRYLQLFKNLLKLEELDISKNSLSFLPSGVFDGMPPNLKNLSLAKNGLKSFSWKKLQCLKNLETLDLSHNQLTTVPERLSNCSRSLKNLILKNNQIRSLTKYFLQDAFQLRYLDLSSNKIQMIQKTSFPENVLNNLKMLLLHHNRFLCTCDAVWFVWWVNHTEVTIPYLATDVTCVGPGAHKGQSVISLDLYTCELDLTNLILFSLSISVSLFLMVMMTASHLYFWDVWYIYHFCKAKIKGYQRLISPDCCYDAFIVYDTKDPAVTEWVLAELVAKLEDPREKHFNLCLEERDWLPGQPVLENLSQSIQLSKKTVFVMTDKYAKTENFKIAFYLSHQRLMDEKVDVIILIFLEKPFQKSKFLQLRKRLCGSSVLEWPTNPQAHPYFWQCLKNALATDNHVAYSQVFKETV
Nature of the test: HEK TLR7 Cell Assay. The settings on record: TLR7/NFKb HEK cells, R848 agonist 10 uM final, Steady-Glo readout. It counts as cell-based. As to the method:
Example 24: HEK TLR7 Cell Assay
as §1, with “TLR7/NFKb” for “TLR8/NFKb”, “(10” for “(30”

With `Cc1ccc(N2C[C@@H](C)[C@@H](NC(=O)CC3CCN(C)CC3(F)F)C2)c2cccnc12` (single isomer, unassigned) [Compound 44], the IC50 in test [1] and in test [2] was 1000 to 10000 nM in each case.

With `CC(C)[C@@H](O)C(=O)N[C@H]1CN(c2ccc(C#N)c3nccnc23)C[C@H]1C` [Compound 16, (2R)—N-[(3R,4R)-1-(8-cyanoquinoxalin-5-yl)-4-methylpyrrolidin-3-yl]-2-hydroxy-3-methylbutanamide], the IC50 in test [1] and in test [2] was 1000 to 10000 nM throughout.

For the compound `C[C@@H]1CN(c2ccc(C#N)c3nccnc23)C[C@@H]1NC(=O)CC1CCN(C)CC1(F)F` (single isomer, unassigned) [Compound 11], the IC50 in test [1] and in test [2] was less than 1000 nM in each case.

`CC(C)[C@H](O)C(=O)N[C@H]1CN(c2ccc(C(F)(F)F)c3ncccc23)C[C@H]1C` [Compound 31, (2S)-2-hydroxy-3-methyl-N-[(3R,4R)-4-methyl-1-[8-(trifluoromethyl)quinolin-5-yl]pyrrolidin-3-yl]butanamide]: the IC50 in test [1] was greater than 10000 nM; in test [2], 1000 to 10000 nM.

With `C[C@@H]1CN(c2ccc(C#N)c3nccnc23)C[C@@H]1NC(=O)CC1(C)CCN(C)CC1` [Compound 8, N-[(3R,4R)-1-(8-cyanoquinoxalin-5-yl)-4-methylpyrrolidin-3-yl]-2-(1,4-dimethylpiperidin-4-yl)acetamide], the IC50 in test [1] and in test [2] was less than 1000 nM each time.

`C[C@@H]1CN(c2ccc(C(F)(F)F)c3ncccc23)C[C@@H]1NC(=O)CC1(F)CCN(C)CC1` [Compound 26, 2-(4-fluoro-1-methylpiperidin-4-yl)-N-[(3R,4R)-4-methyl-1-[8-(trifluoromethyl)quinolin-5-yl]pyrrolidin-3-yl]acetamide]: the half-maximal inhibitory concentration (IC50) in test [1] and in test [2] was less than 1000 nM each time.

In the case of `CC(C)[C@@H](O)C(=O)N[C@H]1CN(c2ccc(C(F)(F)F)c3ncccc23)C[C@H]1C` [Compound 32, (2R)-2-hydroxy-3-methyl-N-[(3R,4R)-4-methyl-1-[8-(trifluoromethyl)quinolin-5-yl]pyrrolidin-3-yl]butanamide], the concentration for half-maximal inhibition (IC50) in test [1] and in test [2] was greater than 10000 nM in each case.

Regarding `Cc1ncc(N2C[C@@H](C)[C@@H](NC(=O)CC3CN(C)C3)C2)c2cccnc12` [Compound 53, 2-(1-methyl-azetidin-3-yl)-N-[(3R,4R)-4-methyl-1-(8-methyl-[1,7]naphthyridin-5-yl)-pyrrolidin-3-yl]-acetamide], the IC50 in test [1] is greater than 10000 nM; in test [2], 1000 to 10000 nM.

As to `Cc1ccc(N2C[C@@H](C)[C@@H](NC(=O)C(O)C3CC3)C2)c2cccnc12` (single isomer, unassigned) [Compound 46], the IC50 in test [1] is greater than 10000 nM; in test [2], 1000 to 10000 nM.

With `Cc1ccc(N2C[C@@H](C)[C@@H](NC(=O)CC3(C)CCN(C)CC3)C2)c2cccnc12` [Compound 40, 2-(1,4-dimethylpiperidin-4-yl)-N-[(3R,4R)-4-methyl-1-(8-methylquinolin-5-yl)pyrrolidin-3-yl]acetamide], the IC50 in test [1] was 1000 to 10000 nM; in test [2] it was less than 1000 nM.

Consider `C[C@@H]1CN(c2ccc(C(F)(F)F)c3ncccc23)C[C@@H]1NC(=O)CC1CCN(C)CC1(F)F` (single isomer, unassigned) [Compound 28], for which the IC50 in test [1] and in test [2] was 1000 to 10000 nM each time.

For the compound `C[C@@H]1CN(c2ccc(C#N)c3nccnc23)C[C@@H]1NC(=O)CC1CCN(C)CC1(F)F` (single isomer, unassigned) [Compound 12], the IC50 in test [1] and in test [2] was less than 1000 nM each time.

For the compound `C[C@@H]1CN(c2ccc(C(F)(F)F)c3ncccc23)C[C@@H]1NC(=O)CC1CCCN(C)C1` (single isomer, unassigned) [Compound 20], the values for the IC50 in test [1] and in test [2] were 1000 to 10000 nM and less than 1000 nM, respectively.

Consider `Cc1ccc(N2C[C@@H](C)[C@@H](NC(=O)CC3CCN(C)C3)C2)c2cccnc12` (single isomer, unassigned) [Compound 37], for which the figures for the IC50 in test [1] and in test [2] were 1000 to 10000 nM and less than 1000 nM, respectively.

Regarding `Cc1ccc(N2C[C@@H](C)[C@@H](NC(=O)CC3CCCN(C)C3)C2)c2cccnc12` (single isomer, unassigned) [Compound 35], the IC50 in test [1] and in test [2] was 1000 to 10000 nM throughout.

As to `C[C@@H]1CN(c2ccc(C#N)c3nccnc23)C[C@@H]1NC(=O)CC1(F)CCN(C)CC1` [Compound 10, N-[(3R,4R)-1-(8-cyanoquinoxalin-5-yl)-4-methylpyrrolidin-3-yl]-2-(4-fluoro-1-methylpiperidin-4-yl)acetamide], the IC50 in test [1] and in test [2] was less than 1000 nM in each case.

For `C[C@@H]1CN(c2ccc(C#N)c3nccnc23)C[C@@H]1NC(=O)CC1CCCN(C)C1` (single isomer, unassigned) [Compound 3], the IC50 in test [1] and in test [2] was less than 1000 nM each time.

With `NC1CN(c2ccc(C(F)(F)F)c3ncccc23)CC1F` (single isomer, unassigned) [Compound 49], the IC50 in test [1] and in test [2] was greater than 10000 nM throughout.

As to `C[C@@H]1CN(c2ccc(C(F)(F)F)c3ncccc23)C[C@@H]1NC(=O)CC1CCCN(C)C1` (single isomer, unassigned) [Compound 19], the IC50 in test [1] and in test [2] was less than 1000 nM each time.

Take `C[C@@H]1CN(c2ccc(C(F)(F)F)c3ncccc23)C[C@@H]1N` [Compound 17, (3R,4R)-4-methyl-1-[8-(trifluoromethyl)quinolin-5-yl]pyrrolidin-3-amine]: the IC50 in test [1] was greater than 10000 nM; in test [2], 1000 to 10000 nM.

As a reminder, the IC50 is the point on the concentration scale where inhibition reaches its midpoint. Read a high IC50 as weaker potency.

The record behind these values is patent publication US10793553B2, “TLR7/8 antagonists and uses thereof” (Merck Patent GmbH, priority 2017, dated 2020).
